Measurements as given in US20140031296A1, “NEW SYNTHETIC PEPTIDES AND THEIR USE” (PERGAMUM AB, priority 2011, published 2014).

Columns and labels:
S. aureus (CCUG 1800) = test: Minimal microbicidal concentration (MMC99) assay, S. aureus; assay type: cell-based; settings: 2 hours; for MMC99 μM in 50% SWF: 50% heat inactivated simulated wound fluid
Description: Antimicrobial Activity was Measured as Bactericidal Effect on S. aureus Using Minimal Microbicidal Concentration, MMC99, Assay)
S. aureus (#1800; CCUG, Gothenburg, Sweden) cultured on blood-agar plates [Columbia agar (Oxoid, Basingstoke, UK) supplemented with 5% defibrinated horse blood (National Veterinary Institute (SVA), Uppsala, Sweden)] were transferred to brain heart infusion broth (3.7% BHI; Difco, BD Diagnostics, Franklin Lakes, N.J., USA) and incubated in a shaker at 250 rpm+37° C. over night. The culture was thereafter be diluted 1:10 in fresh BHI broth and incubated for additional two hours to reach log-phase growth. The bacteria were pelleted and suspended in 1% BHI medium (BHI broth diluted 100 times in ultra-pure water) to a concentration of 10^7 bacteria/ml as estimated by measuring optical density at 600 nm. Peptides were serially diluted by two-fold steps from 160 μM to 1.25 μM in 1% BHI medium. The peptides (100 μl) were thereafter incubated with bacteria (5 μl á 10^7 bact./ml) for 2 hours at +37° C. Drops (5 μl) of the suspension were placed on blood agar plates. The blood agar plates were incubated over night at +37° C. The MMC99 values, i.e. the lowest peptide concentration needed to achieve a 99% reduction of viable bacteria, were recorded (Table 3). The concentration of the bacterial suspension used in the assay was confirmed by viable counts on blood agar plates.
S. aureus (#1800; CCUG, Gothenburg, Sweden) cultured on blood-agar plates [Columbia agar (Oxoid, Basingstoke, UK) supplemented with 5% defibrinated horse blood (National Veterinary Institute (SVA), Uppsala, Sweden)] were transferred to brain heart infusion broth (3.7% BHI; Difco, BD Diagnostics, Franklin Lakes, N.J., USA) and incubated in a shaker at 250 rpm+37° C. over night. The culture was thereafter be diluted 1:10 in fresh BHI broth and incubated for additional two hours to reach log-phase growth. The bacteria were pelleted and suspended in 1% BHI medium (BHI broth diluted 100 times in ultra-pure water) to a final concentration of 10^7 bacteria/ml as estimated by measuring optical density at 600 nm.
Peptides were serially diluted by two-fold steps from 400 μM to 0.78 μM in either 1% BHI medium or in 50% heat inactivated simulated wound fluid [SWF, containing 1 part 0.1% peptone (Oxoid, Basingstoke, UK) in saline and 1 part fetal bovine serum, diluted 2 times in ultra-pure water].
The peptides (100 μl) were thereafter incubated with bacteria (5 μl a 10^7 bact./ml) for 2 hours at +37° C. Drops (5 μl) of the suspension were placed on blood agar plates. The blood agar plates were incubated over night at +37° C. The MMC99 values, i.e. the lowest peptide concentration needed to achieve a 99% reduction of viable bacteria were recorded (Table 6). The concentration of the bacterial suspension used in the assay was confirmed by viable counts on blood agar plates.
The antimicrobial effects of the peptides 232 (SEQ ID NO: 78), and 220 (SEQ ID NO:67) were analysed by MMC99 (minimal microbicidal concentration) assay against S. aureus (CCUG 1800), MRSA (CCUG 41879), P. aeruginosa (ATCC 15442), E. coli (CCUG 31246), S. pyogenes (CCUG 4207), P. acnes (CCUG 1794T), S. epidermidis (ATCC12228), K. pneumoniae (ATCC 13883), A. baumannii (ATCC 19606), and C. albicans (ATCC 64549). The peptides were purchased from Biopeptide Company (San Diego, Calif., USA) and Bachem AG (Bubendorf, Switzerland) and results are presented in Table 8A and 8B respectively.
Peptides were serially diluted in two different assay medium, 1% BHI medium (brain-heart infusion medium) or 50% heat inactivated simulated wound fluid (SWF), and thereafter incubated with the microorganisms for 2 hours. Drops of the suspension were placed on blood agar plates. The MMC99 values, i.e. the lowest peptide concentration needed to achieve a 99% reduction of viable microorganisms, were recorded. As presented in Table 8, all the peptides have the ability to kill microorganisms frequently appearing in infections. […]

[1] = system: TNF-α production in LPS stimulated THP-1 cells; test: Inhibition of TNF-α production in LPS stimulated THP-1 cells (ELISA); assay type: cell-based, human; settings: mean relative secretion, basal = 0%; for TNF-α at 4 μM peptide / TNF-α at 10 μM peptide: stimulated = 100%; for TNF-α at 40 μM peptide: LPS-stimulated level without peptide = 100%
Description: After 6 hours of incubation at +37° C., 5% CO2 and in a humid atmosphere, the cell supernatants were collected, centrifuged and kept frozen in −20° C. until analyzed for TNF-α content by ELISA (R&D Systems, Minneapolis, Minn., USA). The results are presented as mean relative secretion (%), with stimulated TNF-α level without peptide added set to 100% and basal secretion set to 0% (Table 2).
After 6 hours of incubation, the cell supernatants were collected, centrifuged, and kept frozen in −20° C. until analyzed for TNF-α content by ELISA (R&D Systems, Minneapolis, Minn., USA). The results are presented as mean relative secretion (%), with stimulated TNF-α level without peptide added set to 100% and basal secretion set to 0% (Table 5).

[2] = screen 1, 99% reduction of viable bacteria

**Q.** QKRATKRFQWLRNLRKVL [Peptide 205] was tested. Which “MMC99 μM in 1% BHI medium” value (S. aureus (CCUG 1800); screen 2) did it give?
**A.** 12.5 µM

**Q.** And the “MMC99 μM in 50% SWF” value (S. aureus (CCUG 1800); screen 2)?
**A.** 50 µM

**Q.** And the “TNF-α at 4 μM peptide” value ([1]; screen 2)?
**A.** 91.5%

**Q.** And the “TNF-α at 10 μM peptide” value ([1]; screen 2)?
**A.** 89.5%

**Q.** What about the “TNF-α at 40 μM peptide” value ([1]; screen 2) of the same sequence?
**A.** 28.3%

**Q.** QSEATKRFQWLRNLRKVLKR [Peptide 211] was tested. Which “MMC99 μM in 1% BHI medium” value (S. aureus (CCUG 1800); screen 2) did it give?
**A.** 6.25 µM

**Q.** What about the “MMC99 μM in 50% SWF” value (S. aureus (CCUG 1800); screen 2) of the same sequence?
**A.** 100 µM

**Q.** What about the “TNF-α at 4 μM peptide” value ([1]; screen 2) of the same sequence?
**A.** 100.7%

**Q.** What about the “TNF-α at 10 μM peptide” value ([1]; screen 2) of the same sequence?
**A.** 89.8%

**Q.** What about the “TNF-α at 40 μM peptide” value ([1]; screen 2) of the same sequence?
**A.** 62.8%

**Q.** Which “MMC99 μM in 1% BHI medium” value (S. aureus (CCUG 1800); [2]) does the source give for QSEATKRFQWLRNLRKVL [Peptide 119] here?
**A.** 20 µM

**Q.** What about the “TNF-α at 40 μM peptide” value ([1]; screen 1) of the same sequence?
**A.** 10%

**Q.** What does the source list for FWWQRKMRKVR [Peptide 131]?
**A.** MMC99 μM in 1% BHI medium (S. aureus (CCUG 1800); [2]): 5 µM; TNF-α at 40 μM peptide ([1]; screen 1): 87%

**Q.** For TQPDATKCFQWQRNMRKVR [Peptide 103], which “MMC99 μM in 1% BHI medium” value (S. aureus (CCUG 1800); [2]) is on record?
**A.** >160 µM

**Q.** What about the “TNF-α at 40 μM peptide” value ([1]; screen 1) of the same sequence?
**A.** 135%

**Q.** KRQSLARTFKQWARNLRKVL [Peptide 215] was tested. Which “MMC99 μM in 1% BHI medium” value (S. aureus (CCUG 1800); screen 2) did it give?
**A.** 6.25 µM

**Q.** What about the “MMC99 μM in 50% SWF” value (S. aureus (CCUG 1800); screen 2) of the same sequence?
**A.** 25 µM

**Q.** And the “TNF-α at 4 μM peptide” value ([1]; screen 2)?
**A.** 86.6%

**Q.** What about the “TNF-α at 10 μM peptide” value ([1]; screen 2) of the same sequence?
**A.** 69.6%

**Q.** And the “TNF-α at 40 μM peptide” value ([1]; screen 2)?
**A.** 1.3%

**Q.** Which “MMC99 μM in 1% BHI medium” value (S. aureus (CCUG 1800); [2]) does the source give for QPEATKCFPWQRNMRKVR [Peptide 118] here?
**A.** >160 µM

**Q.** And the “TNF-α at 40 μM peptide” value ([1]; screen 1)?
**A.** 113%
